This is an account of results in patent US6833364B1, “Substituted pyrazole derivatives” (Bayer HealthCare AG, priority 1998, dated 2004).

One may read the melting point as the temperature, or range, at which the solid turns liquid.

In data set [1] the test system is soluble guanylate cyclase. As to the kind of experiment: Stimulation of soluble guanylate cyclase in primary endothelial cells (intracellular cGMP). It is filed as cell-based. The following applies: pig aortic primary endothelial cells, 10 min. On the procedure: Stimulation of Soluble Guanylate Cyclase in Primary Endothelial Cells
Primary endothelial cells were isolated from pig aortas by treatment with collagenase soln. The cells were then cultured in culture medium at 37 °C./5% CO2 until confluence was reached. For the investigations, the cells were passaged, inoculated into 24-well cell culture plates and subcultured until reaching confluence (˜2×10^5 cells/well). For the stimulation of endothelial guanylate cyclase, the culture medium was aspirated and the cells were washed once with Ringer solution. After removing the Ringer solution, the cells were incubated for 10 minutes, at 37° C./5% CO2 in stimulation buffer. […] After a further 10 minutes the buffer solution was aspirated and cold buffer at 4° C. was added to the cells. The cells were then lysed at −20° C. for 16 hours. The supernatants containing the intracellular cGMP were then removed and the cGMP concentration was determined by means of the cGMP-SPA system (Amersham Buchler, Brunswick).

Another data set has as its system anaesthetized rats. As to the kind of experiment: Blood pressure measurements in anaesthetized rats. It is filed as in vivo. The following applies: anaesthetized male Wistar rats. On the procedure:
Blood Pressure Measurements in Anaesthetized Rats
Male Wistar rats having a bodyweight of 300-350 g are anaesthetized with Thiopental (100 mg/kg i.p.). After tracheotomy, a catheter is inserted into the femoral artery for blood pressure measurement. The substances to be tested are administered orally in Transcutol, Cremophor EL, H2O (10%/20%/70%) in a volume of 1 ml/kg.

The test system of another data set is awake rabbits. As to the kind of experiment: Erection-promoting action of guanylate cyclase stimulators in awake rabbits. It is filed as in vivo, chinchilla rabbits. The following applies: for Erection-promoting effect, +SNP i.v.: with sodium nitroprusside 0.2 mg/kg i.v. simultaneously; for Erection-promoting effect, +SNP po: sodium nitroprusside 0.2 mg/kg i.v. 30 min later. The text has this: For a complete and lasting erection to occur, the cavernous arteries and the entire cavernous body architecture, which is formed by a network of smooth muscle cells and collagen connective tissue, has to be at maximum dilation so that the corpus cavernosum can fill completely with blood (Anderson K.-E. and Wagner G., “Physiology of Penile Erection.”. Physiological Reviews 75, 191-236 (1995); Meinhardt W. Kropmann R F, Vermeig P, Lycclama a Nigelholt and Zwartendijk J. “The Influence of Medication on Erectile dysfunction.” Int. J. of Impotence Res. 9, 17-26 (1997). Relaxation of smooth muscles is mediated by NO which, in the case of sexual stimulation, is released by non-adrenergic, non-cholinergic nerve fibres in the endothelial cells of the blood vessels of the corpus cavernosum. NO activates guanylate cyclase, and the resulting increase in cGMP leads to dilation of the smooth muscles of the corpus cavernosum and consequently to an erection. To test the efficacy of the substances according to the invention, awake rabbits were used. The species rabbit was chosen since neurophysiology, haemodynamic and the control of contraction and relaxation of the smooth muscles of the corpus cavernosum of rabbit and man are quite similar (Meyer M F, Taher H., Krah H., Staubesand J., Becker A J, Kircher M, Mayer B., Jonas U., Forsmann W G., Stief Ch.G. “Intracavenous Application of SIN-1 in Rabbit and Man: Functional and Toxcological Results.” Annals Urol. 27, 179-182 (1993); Taub H C, Lerner S E, Melman A, Christ G J “Relationship between contraction and relaxation in human and rabbit corpus cavernosum.” Urology 42, 698-671, (1993).
Adult male chinchilla rabbits having a weight of 3-5 kg are, after delivery, adapted for several days in isolation. They have free access to water and can feed for two hours per day. The animals are kept in a 10/14 hour day/night rhythm (light switched on from 8.00 hours onwards). The room temperature is 22-24° C.
The animals are weighed directly before the start of the experiment. For intravenous administration, the substances according to the invention were dissolved in a mixture of Transcutol (GATTEFOSSE GmbH ) diluted with 20% Cremophor (BASF) and water in a ratio of 3/7. Sodium nitroprusside was dissolved in 0.9% NaCl. The substances were injected at the dosages stated in the table in a volume of 0.5 ml/kg into the auricular vein. For oral administration, the test substances were dissolved in a mixture of glycerol: water: polyethylene glycol 6:10:9.69 and administered at the dosages stated in the table in a volume of 1 ml/kg using the stomach tube.
The effect of guanylate cyclase stimulators is increased by NO donors.
The sodium nitroprusside was injected into the auricular vein at a dosage of 0.2 mg/kg simultaneously with the substance according to the invention. If the substance according to the invention was administered orally, the sodium nitroprusside was injected into the auricular vein of these animals 30 min after the oral administration. Corresponding controls were carried out using the solvent and using sodium nitroprusside on its own.
At rest, the penis of the rabbit is not visible in the pubic region and is covered completely by the sheath. The erection is assessed by measuring the length of the protruding penis with a calliper square. Measurements are carried out 5, 10, 15, 30, 45, 60, 120 and 180 min. after the administration of the substance. The effect is calculated as the product of the length of the penis which is not covered by fur in [mm] and the time for which the erection persists in [min].
The substances were administered in the dosages stated. The sodium nitroprusside was in each case administered i.v., at 0.2 mg/kg. If the substance according to the invention was administered i.v., the sodium nitroprusside was administered simultaneously, if the substance according to the invention was administered orally, it was administered 30 min later. […]

A further data set deals with rabbit aortal rings. As to the kind of experiment: Vasorelaxant action in vitro, aortal rings contracted with phenylephrine. The following applies: Oryctolagus cuniculus; rabbit aorta rings, phenylephrine contraction; read-out: IC50 (concentration reducing height of phenylephrine contraction by 50%). On the procedure: Vasorelaxant Action in vitro
Rabbits are anaesthetized by a blow to the neck and exanguinated. The aorta is removed, freed from adhering tissue, divided into 1.5 mm wide rings and individually transferred under a pretension into 5 ml organ baths containing a warm, carbogen-aerated Krebs-Henseleit solution at 37° C. of the following composition (mM): NaCl: 119; KCl: 4.8; CaCl2×2 H2O: 1; MgSO4×7 H2O; 1.4; KH2PO4: 1.2; NaHCO3: 25; glucose: 10. The contractility is detected using Statham UC2 cells, amplified and digitalized by means of A/D converters (DAS-1802 HC, Keithley Instruments Munich), and recorded in parallel on linear recorders. To produce a contraction, phenylephrin is added to the bath cumulatively in increasing concentration. After several control cycles, the substance to be investigated is investigated in each further passage in increasing dosage in each case, and the height of the contraction is compared with the height of the contraction achieved in the last preliminary passage. From this, the concentration which is necessary in order to reduce the height of the control value by 50% (IC50) is calculated. The standard administration volume is 5 μl, and the proportion of DMSO in the bath solution corresponds to 0.1%.

For data set [2], the system named is human platelets stimulated with collagen. As to the kind of experiment: Inhibition of platelet aggregation in vitro (collagen-induced). It is filed as cell-based. The following applies: 10 min, washed human platelets, 10 min incubation at 37° C. As for the experimental part: To determine the cardiovascular action, the following investigations were carried out: In in vitro investigations on the isolated enzyme and on cells of vascular origin, the effect on guanylate cyclase-dependent cGMP formation was tested with and without NO donor. The anti-aggregatory properties were shown on human platelets stimulated with collagen. The vasorelaxant action was determined in rabbit aortal rings preconcentrated with phenylephrine. The hypotensive action was investigated in anaesthetized and awake rats.
To determine the platelet-aggregation, blood from healthy volunteers of both sexes was used. As an anticoagulant, 9 parts of blood were admixed to one part of 3.8% strength sodium citrate solution. The blood was centrifuged at 900 rpm for 20 min. The pH of the platelet-rich plasma obtained was adjusted to pH 6.5 using ACD solution (sodium citrate/citric acid/glucose). The platelets were subsequently centrifuged off and resuspended in buffer and once more centrifuged off. The platelet pellet was suspended in buffer and mixed with an additional 2 mmol/l of CaCl2.
To measure the aggregation, aliquots of the platelet suspension were incubated with the substance to tested at 37° C. for 10 min.

Take `Nc1nc(-c2nn(Cc3ccccc3F)c3ncccc23)ncc1C1CCC1` [Example 2, 3-(4-Amino-5-cyclobutylpyrimidin-2-yl)-1-(2-fluorobenzyl)-1H-pyrazolo[3,4-b]pyridine]: the melting point was 214 °C.
Take `Nc1nc(-c2nn(Cc3ccccc3F)c3ncccc23)ncc1C1CC1` [Example 1, 3-(4-Amino-5-cyclopropylpyrimidin-2-yl)-1-(2-fluorobenzyl)-1H-pyrazolo[3,4-b]pyridine]: the cGMP was determined as 2.2 pmol/well in data set [1] (concentration 0.1 μM); 4.0 pmol/well in data set [1] (concentration 0.3 μM); 6.9 pmol/well in data set [1] (concentration 1.0 μM); 8.5 pmol/well in data set [1] (concentration 3.0 μM); 14.6 pmol/well in data set [1] (concentration 10 μM). In addition, the “Max. reduction in blood pressure” value is 23 mm Hg in the data set with anaesthetized rats (1 mg/kg p.o.) and 37 mm Hg in the data set with anaesthetized rats (3 mg/kg p.o.). Further, the “Time (of max. reduction in blood pressure)” value with anaesthetized rats (1 mg/kg p.o.) stood at 20 min; in the data set with anaesthetized rats (3 mg/kg p.o.) it was 40 min. Besides, the “Erection-promoting effect, +SNP i.v.” value in the data set on awake rabbits (0.3 mg/kg i.v.) is 140 [mm] × [min]; with awake rabbits (1 mg/kg i.v.) it was 369 [mm] × [min]. Besides, the “Erection-promoting effect, +SNP po” value with awake rabbits (1 mg/kg po) was 184 [mm] × [min]; in the data set with awake rabbits (3 mg/kg po), 233 [mm] × [min]; in the data set with awake rabbits (10 mg/kg po), 375 [mm] × [min]; with awake rabbits (30 mg/kg po) it was 804 [mm] × [min]. For the same compound, the “Erection-promoting effect, −SNP po” value with awake rabbits (30 mg/kg po, without sodium nitroprusside) is 418 [mm] × [min]. In addition, the IC50 was found to be 0.2 µM with rabbit aortal rings and 0.003 µM in data set [2].
`Nc1nc(-c2nn(Cc3ccccc3F)c3ncccc23)ncc1C1CCCCC1` [Example 4, 3(4-Amino-5-cyclohexylpyrimidin-2-yl)-1-(2-fluorobenzyl)-1H-pyrazolo[3,4-b]pyridine] returned a melting point of 213 °C.
Take `Nc1nc(-c2nn(Cc3ccccc3F)c3ncccc23)ncc1C1CCCC1` [Example 3, 3-(4-Amino-5-cyclopentylpyrimidin-2-yl)-1-(2-fluorobenzyl)-1H-pyrazolo[3,4-b]pyridine]: the melting point worked out at 208 °C.
